The conditions of series [1]: Bhuyan et al., Cancer Res. 42 (1982); cited from earlier work.
Series [2] is described as follows: Toxicity study in the Colo205 colon carcinoma model. It is filed as in vivo. The following applies: sunitinib 60 mg/kg/day, sorafenib 80 mg/kg/day. The method, then:
An additional study was performed using the Colo205 colon carcinoma model to test the toxicity of sunitinib (60 mg/kg/day), sorafenib (80 mg/kg/day), and Comp-I (30 mg/kg/day) treatment.

Series [3] concerns Colo205 colon carcinoma. Description: Tumor inhibition, Colo-205 colon carcinoma xenogeneic s.c. model. It is filed as in vivo, Human. The following applies: 60 mg/kg, treatment started at average tumor size 200 mm^3, Kaplan Meier (FIG. 3). The method, then:
(§1) The anti-tumor effect of Comp-I was compared to bevacizumab treatment in a model of colon (Colo205 colon carcinoma) and brain (U87 glioblastoma) tumors.
The anti-tumor effect of Comp-I was also compared to treatment with sunitinib and sorafenib in a Colo205 colon carcinoma model. FIG. 3 depicts a Kaplan Meier Survival analysis on the length of time for individual tumors to reach a given size. […] All three compounds were administered at 60 mg/kg.

For series [4], the system named is U87 glioblastoma. Description: Tumor inhibition, U87 glioblastoma xenograft model. It counts as in vivo, Human. Conditions: nude male mice, 30 mg/kg Comp-I or 5 mg/kg bevacizumab bi-weekly, 20 days (FIG. 2). The method, then:
The effect of Comp-I and bevacizumab treatment was assessed in a U87 xenograft model of human glioblastoma (FIG. 2). Briefly, nude male mice, 6-7 weeks of age, were implanted with U87 glioblastoma tumor cells (5×10^6) subcutaneously on the right flank. Tumor growth was monitored 2 times per week using caliper measurement. Drug treatment was initiated after the tumors reached a size of at least 50 mm^3.Tumor growth inhibition over vehicle was greater in Comp-I (56%) as compared to bevacizumab (35%) treatment.
as §1
(In general: In xenograft studies the graft and the host belong to different species.)

We go through four compounds from patent US20100144599A1, “VEGF PATHWAY BLOCKADE” (Bristol-Myers Squibb Company, priority 2007, published 2010).

As to `COc1c(O)c2c(c3cc(C(=O)N4CCc5c4c(O)c(OC)c4[nH]c(C(=O)N6CC7CC78C6=CC(=O)c6[nH]cc(C)c68)cc54)[nH]c13)CCN2C(N)=O` (stereo not drawn) [CC-1065], the “potency in vitro relative to commonly used anti-cancer drugs, such as doxorubicin, methotrexate and vincristine” value in series [1] was “about 1000 fold”.

Take `CNC(=O)c1cc(Oc2ccc(NC(=O)Nc3ccc(Cl)c(C(F)(F)F)c3)cc2)ccn1` [sorafenib]: the mice survived in series [2] is listed as 14/15. Moreover, the “tumors remaining under 500 mm^3” value in series [3] is on record as “around 60%”.

As to `CCN(CC)CCNC(=O)c1c(C)[nH]c(/C=C2\C(=O)Nc3ccc(F)cc32)c1C` [sunitinib], the mice survived in series [2] is 12/15. Also, the “tumors remaining under 500 mm^3” value in series [3] is given as “around 60%”.

Turning to bevacizumab, in series [4], the “Tumor growth inhibition over vehicle” value came out at 35%.
